# Source: US6407088B1 (priority 2000, dated 2002)
# Where “and” joins values, the source holds several entries; their conditions need not be identical. Equal entries are not always repeated. Entries after “also recorded” stand apart in the source; their conditions may differ. Where two headings read alike, the source gives them in different places. Marks after values point to notes of the source that are not given here.
# Legend:
# Kunming mice [1] = assay: Acetic acid-induced writhing test in mice; format: in vivo
# mice [2] = assay: Analgesic time-effect relation in acetic acid-induced writhing test in mice; format: in vivo; conditions: for IR, inhibition rate / AWI, average writhing incidence: aspirin ig
# Kunming mice [3] = conditions: mouse, in vivo
# Salmonella TA97 = conditions: Dexon 50.0, −S9; control 138 ± 18
# Salmonella TA98 = conditions: Dexon 50.0, −S9; control 36 ± 5
# Salmonella TA100 = conditions: Dexon 50.0, −S9; control 130 ± 11
# Kunming mice [4] = conditions: mouse, in vivo; remark: listed apart in the source
# Kunming mice [5] = conditions: mouse, in vivo; remark: listed apart in the source
# [6] = system: Chinese hamster lung (CHL) cells; format: cell-based; conditions: for Chromosomal aberration rate (%): MMC 0.25 μg/mL, no metabolic activation, P<0.01
# Description: The Chinese hamster lung (CHL) cells were exposed to tetrodotoxin at the concentrations of 5.0, 10.0, and 20.0 μg/mL for 24 or 48 hours in the absence of Sg activation and for 6 hours in the presence of S9 activation.
# Wistar rats = assay: Formalin induced inflammation test in rats; conditions: rat, in vivo
# rats [7] = assay: Tail-flick test in rats; conditions: rat, in vivo
# mice [8] = conditions: mouse, in vivo
# rats [9] = conditions: rat, in vivo
# monkeys [10] = conditions: rhesus monkey, in vivo
# monkeys [11] = conditions: rhesus monkey, in vivo; remark: listed apart in the source
# [12] = system: rabbits' quadriceps femoris muscles
# [13] = system: late term cancer patients; conditions: human, in vivo
# anesthetized dogs = conditions: dog, in vivo
# Rhesus monkeys = conditions: rhesus monkey, in vivo
# [14] = system: 2% red blood cell (RBC) suspension; format: cell-based, rabbit
# rabbits = system: rabbits; design: species or system New Zealand white rabbits; conditions: rabbit, in vivo, iv
# [15] = system: TTX-sensitive sodium channel (TTX-S); conditions: cited from earlier work
# [16] = target: TTX-resistant sodium channel (TTX-R) (Rattus norvegicus, UniProt Q62968); conditions: cited from earlier work
# TTX-resistant sodium channel (TTX-R), sequence (Q62968 whole entry, looked up): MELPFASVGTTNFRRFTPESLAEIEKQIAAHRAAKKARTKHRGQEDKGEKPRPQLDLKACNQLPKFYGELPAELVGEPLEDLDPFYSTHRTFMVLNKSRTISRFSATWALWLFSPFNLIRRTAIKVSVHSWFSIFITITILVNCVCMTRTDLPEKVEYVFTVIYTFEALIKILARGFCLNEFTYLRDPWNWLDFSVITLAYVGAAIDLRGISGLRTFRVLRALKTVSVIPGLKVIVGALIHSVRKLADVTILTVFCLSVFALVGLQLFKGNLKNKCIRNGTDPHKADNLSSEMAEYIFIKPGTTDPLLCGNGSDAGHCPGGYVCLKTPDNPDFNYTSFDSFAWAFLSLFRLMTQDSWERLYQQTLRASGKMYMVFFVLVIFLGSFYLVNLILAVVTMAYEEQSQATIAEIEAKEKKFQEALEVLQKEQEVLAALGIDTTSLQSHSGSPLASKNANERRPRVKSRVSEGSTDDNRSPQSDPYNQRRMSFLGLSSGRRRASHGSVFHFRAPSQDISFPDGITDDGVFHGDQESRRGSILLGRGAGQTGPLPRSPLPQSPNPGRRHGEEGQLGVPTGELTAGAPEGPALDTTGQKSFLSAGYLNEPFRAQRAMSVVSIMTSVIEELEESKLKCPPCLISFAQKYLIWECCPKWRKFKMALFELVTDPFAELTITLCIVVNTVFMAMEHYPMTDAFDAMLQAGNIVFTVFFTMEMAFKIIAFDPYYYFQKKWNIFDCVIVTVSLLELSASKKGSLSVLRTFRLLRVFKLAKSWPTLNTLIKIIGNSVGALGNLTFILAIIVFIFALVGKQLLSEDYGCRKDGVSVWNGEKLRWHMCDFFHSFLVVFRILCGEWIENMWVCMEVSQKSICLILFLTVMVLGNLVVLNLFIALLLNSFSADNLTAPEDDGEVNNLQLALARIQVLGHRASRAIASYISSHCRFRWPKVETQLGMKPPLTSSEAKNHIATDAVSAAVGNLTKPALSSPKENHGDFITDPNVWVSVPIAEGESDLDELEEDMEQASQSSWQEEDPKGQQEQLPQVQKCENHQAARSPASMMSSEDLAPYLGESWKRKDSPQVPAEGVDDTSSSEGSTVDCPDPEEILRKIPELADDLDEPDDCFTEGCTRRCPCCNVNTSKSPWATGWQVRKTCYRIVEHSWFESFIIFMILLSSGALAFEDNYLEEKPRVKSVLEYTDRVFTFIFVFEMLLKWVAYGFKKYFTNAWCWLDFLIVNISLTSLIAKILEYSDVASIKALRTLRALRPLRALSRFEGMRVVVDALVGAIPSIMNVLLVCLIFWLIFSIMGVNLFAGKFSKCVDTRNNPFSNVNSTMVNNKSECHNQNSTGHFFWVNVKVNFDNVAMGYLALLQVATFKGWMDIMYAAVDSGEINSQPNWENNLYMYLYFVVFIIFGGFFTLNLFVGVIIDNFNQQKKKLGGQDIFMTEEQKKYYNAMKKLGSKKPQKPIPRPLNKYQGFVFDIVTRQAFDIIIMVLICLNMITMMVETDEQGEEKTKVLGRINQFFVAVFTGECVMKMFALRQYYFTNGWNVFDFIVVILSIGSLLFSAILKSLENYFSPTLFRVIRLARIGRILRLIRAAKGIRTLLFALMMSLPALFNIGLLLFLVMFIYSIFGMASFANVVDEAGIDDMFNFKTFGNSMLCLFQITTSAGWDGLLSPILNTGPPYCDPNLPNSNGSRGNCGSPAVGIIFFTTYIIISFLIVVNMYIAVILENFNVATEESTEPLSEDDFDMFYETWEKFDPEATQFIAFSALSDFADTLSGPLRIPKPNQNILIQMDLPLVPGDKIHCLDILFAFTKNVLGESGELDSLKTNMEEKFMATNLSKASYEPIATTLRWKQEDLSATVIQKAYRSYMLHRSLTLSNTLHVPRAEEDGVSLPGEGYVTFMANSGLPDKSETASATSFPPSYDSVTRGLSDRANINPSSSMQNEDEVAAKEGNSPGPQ
# Shanghai mice = conditions: mouse, in vivo
# hPN3 = hPN3 (Homo sapiens, UniProt Q9Y5Y9); conditions: cited from earlier work
# hPN3, sequence (Q9Y5Y9 whole entry, looked up): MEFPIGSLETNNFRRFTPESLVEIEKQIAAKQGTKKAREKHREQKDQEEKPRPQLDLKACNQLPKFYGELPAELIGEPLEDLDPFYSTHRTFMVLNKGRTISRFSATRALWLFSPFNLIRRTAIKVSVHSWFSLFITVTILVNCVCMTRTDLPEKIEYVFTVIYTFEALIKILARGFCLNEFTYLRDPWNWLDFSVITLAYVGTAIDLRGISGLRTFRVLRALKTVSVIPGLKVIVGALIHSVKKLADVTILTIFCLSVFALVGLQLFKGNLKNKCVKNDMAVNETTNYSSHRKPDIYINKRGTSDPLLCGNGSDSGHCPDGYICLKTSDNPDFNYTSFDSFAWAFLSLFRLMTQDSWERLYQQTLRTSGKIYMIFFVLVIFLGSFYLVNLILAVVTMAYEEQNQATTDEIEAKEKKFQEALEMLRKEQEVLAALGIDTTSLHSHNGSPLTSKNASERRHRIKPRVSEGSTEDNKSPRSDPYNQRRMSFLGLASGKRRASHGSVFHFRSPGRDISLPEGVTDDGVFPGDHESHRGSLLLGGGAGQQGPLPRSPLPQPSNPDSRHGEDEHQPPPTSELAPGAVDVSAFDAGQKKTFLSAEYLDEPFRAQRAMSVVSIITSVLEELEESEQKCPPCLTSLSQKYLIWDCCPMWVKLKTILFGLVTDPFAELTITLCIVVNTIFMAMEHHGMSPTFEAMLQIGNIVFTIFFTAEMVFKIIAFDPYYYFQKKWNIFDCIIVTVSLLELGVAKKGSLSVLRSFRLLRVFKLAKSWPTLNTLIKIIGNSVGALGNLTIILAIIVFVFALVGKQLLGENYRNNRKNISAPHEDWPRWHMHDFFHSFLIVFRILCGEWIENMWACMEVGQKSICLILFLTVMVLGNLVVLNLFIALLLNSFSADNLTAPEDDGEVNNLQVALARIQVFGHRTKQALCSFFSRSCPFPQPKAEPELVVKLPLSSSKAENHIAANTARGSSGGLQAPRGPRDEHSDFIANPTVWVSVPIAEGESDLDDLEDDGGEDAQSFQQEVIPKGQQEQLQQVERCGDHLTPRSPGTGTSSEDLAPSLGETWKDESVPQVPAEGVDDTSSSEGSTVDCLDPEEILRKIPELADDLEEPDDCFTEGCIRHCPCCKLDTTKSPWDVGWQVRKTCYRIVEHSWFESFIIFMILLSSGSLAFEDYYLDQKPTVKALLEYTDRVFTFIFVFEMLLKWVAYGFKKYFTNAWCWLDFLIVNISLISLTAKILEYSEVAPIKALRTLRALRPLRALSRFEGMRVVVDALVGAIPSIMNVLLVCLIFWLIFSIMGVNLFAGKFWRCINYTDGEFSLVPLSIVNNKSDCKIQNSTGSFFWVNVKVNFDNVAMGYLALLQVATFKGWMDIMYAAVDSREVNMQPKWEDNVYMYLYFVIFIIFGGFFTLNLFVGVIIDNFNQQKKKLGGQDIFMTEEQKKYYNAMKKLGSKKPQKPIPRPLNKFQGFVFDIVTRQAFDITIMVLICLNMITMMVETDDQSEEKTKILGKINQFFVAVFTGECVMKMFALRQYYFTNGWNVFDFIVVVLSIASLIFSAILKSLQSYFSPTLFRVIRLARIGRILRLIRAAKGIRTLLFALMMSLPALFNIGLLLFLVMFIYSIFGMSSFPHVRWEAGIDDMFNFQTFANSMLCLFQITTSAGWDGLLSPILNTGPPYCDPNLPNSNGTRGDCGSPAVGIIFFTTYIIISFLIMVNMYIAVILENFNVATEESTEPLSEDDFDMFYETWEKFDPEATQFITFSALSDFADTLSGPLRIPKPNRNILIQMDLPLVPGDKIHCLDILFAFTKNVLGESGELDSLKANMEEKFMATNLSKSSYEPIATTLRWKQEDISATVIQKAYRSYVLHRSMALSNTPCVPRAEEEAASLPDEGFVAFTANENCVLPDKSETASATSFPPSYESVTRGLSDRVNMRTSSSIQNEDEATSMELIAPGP
# mouse's marrow cells = conditions: in vivo
# [17] = Aspirin 100 mg/kg, Table 5 (im)
# [18] = Aspirin 200 mg/kg, Table 5 (im)
# [19] = Aspirin 300 mg/kg, Table 5 (im)
# [20] = Aspirin 400 mg/kg, Table 5 (im)
# [21] = quadriceps femoris, 1 mL im, 48 hours
compound,measurement,setting,value
"10% bovine serum albumin: 10% bovine serum albumin solution, positive control in hypersensitivity test",animals with hypersensitive reaction (+),"Hartley guinea pigs; (+) scratching nose, pilo-erection, uneasiness, sneezing, shortness of breath, mild cyanosis, animals/8",4/8
same,animals with hypersensitive reaction (++),"Hartley guinea pigs; (++) pilo-erection, manifest dyspnea, cyanosis, weakness of limbs, animals/8",3/8
same,animals with hypersensitive reaction (+++),"Hartley guinea pigs; (+++) Death, animals/8",1/8
same,animals with hypersensitive reaction (−),"Hartley guinea pigs; guinea pig, in vivo",0/8
CC(=O)Oc1ccccc1C(=O)O [Aspirin],Percentage of inhibition (%),"Kunming mice [1]; Aspirin 100 mg/kg, Table 4 (sc)",18.9%
same,Average Writhing Incidents,Kunming mice [1]; [17],22.1
same,Inhibition Rate %,Kunming mice [1]; [17],21.7%
same,Percentage of inhibition (%),"Kunming mice [1]; Aspirin 200 mg/kg, Table 4 (sc)",46.2%
same,Average Writhing Incidents,Kunming mice [1]; [18],14.3
same,Inhibition Rate %,Kunming mice [1]; [18],49.3%
same,Percentage of inhibition (%),"Kunming mice [1]; Aspirin 300 mg/kg, Table 4 (sc)",69.4%
same,Average Writhing Incidents,Kunming mice [1]; [19],7.2
same,Inhibition Rate %,Kunming mice [1]; [19],74.4%
same,Percentage of inhibition (%),"Kunming mice [1]; Aspirin 400 mg/kg, Table 4 (sc)",85.4%
same,Average Writhing Incidents,Kunming mice [1]; [20],2.7
same,Inhibition Rate %,Kunming mice [1]; [20],90.6%
same,ID50 and 95% Confidence Interval,"Kunming mice [1]; Aspirin, Table 4 (sc)",198.8 mg/kg
same,ID50 (95% Confidence Interval),"Kunming mice [1]; Aspirin, Table 5 (im)",183.8 mg/kg
same,duration of analgesic effect,mice [2]; aspirin 400 mg/kg po,about 2 hours
same,onset of therapeutic effect,mice [2]; aspirin 400 mg/kg po,20 min
same,time to peak effect after dosing,mice [2]; aspirin 400 mg/kg po,30 min
same,"IR, inhibition rate","mice [2]; Table 10, 10 min",38.4
same,"IR, inhibition rate","mice [2]; Table 10, 20 min",41.1
same,"AWI, average writhing incidence","mice [2]; Table 10, 30 min",1.98
same,"IR, inhibition rate","mice [2]; Table 10, 30 min",89.2
same,"AWI, average writhing incidence","mice [2]; Table 10, 40 min",4.8
same,"IR, inhibition rate","mice [2]; Table 10, 40 min",74.1
same,"AWI, average writhing incidence","mice [2]; Table 10, 70 min",6.3
same,"IR, inhibition rate","mice [2]; Table 10, 70 min",65.9
same,"IR, inhibition rate","mice [2]; Table 10, 100 min",37.1
same,"IR, inhibition rate","mice [2]; Table 10, 130 min",36.2
same,"AWI, average writhing incidence","mice [2]; Table 12 (NS 28.2 ± 14.3), 10 min after dosing",19.5
same,"IR, inhibition rate","mice [2]; Table 12, 10 min",30.8
same,"AWI, average writhing incidence","mice [2]; Table 12, 20 min",17.7
same,"IR, inhibition rate","mice [2]; Table 12, 20 min",37.2
same,"AWI, average writhing incidence","mice [2]; Table 12, 30 min",5.5
same,"IR, inhibition rate","mice [2]; Table 12, 30 min",80.6
same,"AWI, average writhing incidence","mice [2]; Table 12, 45 min",8.2
same,"IR, inhibition rate","mice [2]; Table 12, 45 min",70.9
same,"AWI, average writhing incidence","mice [2]; Table 12, 60 min",10.2
same,"IR, inhibition rate","mice [2]; Table 12, 60 min",63.8
same,"AWI, average writhing incidence","mice [2]; Table 12, 90 min",14.4
same,"IR, inhibition rate","mice [2]; Table 12, 90 min",49.0
same,"AWI, average writhing incidence","mice [2]; Table 12, 120 min",19.3
same,"IR, inhibition rate","mice [2]; Table 12, 120 min",31.6
same,"AWI, average writhing incidence","mice [2]; Table 12, 150 min",22.8
same,"IR, inhibition rate","mice [2]; Table 12, 150 min",19.3
Cn1c(=O)c2c(ncn2C)n(C)c1=O [Caffeine],Number of autonomic mobility (X ± SD),Kunming mice [3],777 ± 178 •••
O=C1c2cccc(O)c2C(=O)c2c(O)cccc21 [DAN],"Number of revertant Salmonella colonies, TA102","Salmonella TA102; DAN 100.0, +S9",906 ± 69
same,"Number of revertant Salmonella colonies, TA102","Salmonella TA102; DAN 100.0, −S9",379 ± 99
CN(C)c1ccc(N=NS(=O)(=O)[O-])cc1.[Na+] [Dexon],"Number of revertant Salmonella colonies, TA97",Salmonella TA97,1567 ± 315
same,"Number of revertant Salmonella colonies, TA98",Salmonella TA98,604 ± 86
same,"Number of revertant Salmonella colonies, TA100",Salmonella TA100,562 ± 50
same,"Number of revertant Salmonella colonies, TA102","Salmonella TA102; Dexon 50.0, −S9, control 270 ± 45",858 ± 79
CN1C(=O)CN=C(c2ccccc2)c2cc(Cl)ccc21 [Diazepam],Number of autonomic mobility (X ± SD),Kunming mice [3],323 ± 203 |||
same,Sleeping time (X ± SD),Kunming mice [4]; Kunming,146.2 ± 53. ||| min
same,Number of positively effected animals,Kunming mice [5],8 ***
CO[C@@]12[C@H](COC(N)=O)C3=C(C(=O)C(C)=C(N)C3=O)N1C[C@@H]1N[C@@H]12 [MMC],Chromosomal aberration rate (%),[6]; 24 hours,72%
same,Chromosomal aberration rate (%),[6]; 48 hours,99%
CCOC(=O)C1(c2ccccc2)CCN(C)CC1 [Meperidine],ID50 and 95% Confidence Interval,"Kunming mice [1]; mouse, in vivo, sc",1.8 mg/kg
"CN1CC[C@]23c4c5ccc(O)c4O[C@H]2[C@@H](O)C=C[C@H]3[C@H]1C5 [Morphine, morphine]",ID50 (95% CI),Wistar rats,2.74 mg/kg
same,ID50 (95% CI),Wistar rats; sc,2.63 (2.32 ˜ 2.98) mg/kg
same,Latency time,rats [7],>20 min
same,Jumping Frequency (X ± SD),mice [8],19.7 ± 16.3
same,Jumping Incidence (%),mice [8],90.0%
same,Score of body weight loss (Mean ± SD),rats [9],10.00 ± 2.60
same,Score of withdrawal symptoms (Mean ± SD),rats [9],7.38 ± 1.16
same,Score of Withdrawal Symptoms,monkeys [10]; Guangxi,61.0 ± 2.6
same,Body Weight Loss (%),monkeys [10],6.6 ± 1.7%
same,"Percentage change in body weight, Overall Mean X ± SD",monkeys [11],−6.1
"CC1(C)S[C@@H]2[C@H](NC(=O)Cc3ccccc3)C(=O)N2[C@H]1C(=O)[O-].[K+] [Penicillin G-K, penicillin G-K]","Grade for stimulation reaction, Left side, rabbit 1",[12]; [21],4
same,"Grade for stimulation reaction, Right side, rabbit 1",[12]; [21],4
same,"Grade for stimulation reaction, Right side, rabbit 2",[12]; [21],4
same,"Grade for stimulation reaction, Left side, rabbit 2","[12]; rabbit, in vivo",4
same,Sum of grades,"[12]; two rabbits, both sides",16
"N=C1NC(O)C2C3OC4(O)OC(C(O)C2(N1)C4O)C3(O)CO (stereo not shown) [TTX, octahydro-12-(hydroxymethyl)-2-imino-5,9:7,10a-dimethano-10aH-(1,3)dioxocino(6,5-d)-pyrimidine-4,7,10,11,12-pentol]","analgesic effect, times stronger than meperidine","Kunming mice [1]; mouse, in vivo",670 times
same,"analgesic effect, times stronger than morphine",Wistar rats,2900 times
same,"analgesic effect, times stronger than morphine",Wistar rats; sc,3200 times
same,Side Effect(s),[13],"Numbness; also recorded: Numbness,; also recorded: nausea, vomit"
same,addiction or withdrawal,[13],No signs of addiction or withdrawal
same,blood pressure decrease,[13],10-15 mm Hg
same,duration of analgesic effect / total pain relief,[13],20 to 30 days
same,duration of numbness or tingling,[13],at most 30 min
same,"onset of numbness or tingling in lips, tongue tip, fingers and toes",[13],10 to 20 min
same,pain at the conclusion of treatment,[13],entirely eliminated
same,pain intensity of all subjects,[13],reduced to 0 in all but one patient who recorded a 1
same,quality of life interference,[13],0
same,quality of life score,[13],6
same,"time to noticeable pain relief, some subjects",[13],5 min
same,"time to pain relief (various degrees), all subjects",[13],≤ 30 min
same,time to recovery of blood pressure,[13],40 to 50 min
same,time to take effect,[13],5 to 30 min
same,duration of analgesic effect,"mice [2]; mouse, in vivo, sc",about 5 hours
same,onset of therapeutic effect,"mice [2]; mouse, in vivo, sc",15 min
same,time to peak effect after dosing,"mice [2]; mouse, in vivo, sc",60 min
same,"effect on blood pressure, heart rate, electrocardiogram, respiratory rate and depth",anesthetized dogs,did not significantly affect
same,decrease of AChE activity,Rhesus monkeys,41.2%
same,toxic symptoms,Rhesus monkeys,evident toxic symptoms
same,in vitro haemolyzation,[14],did not induce in vitro haemolyzation
same,vascular stimulation,rabbits,did not produce any pronounced vascular stimulation
same,chromosomal aberration rates,[6],0˜2%
same,IC50,[15],0.001 to 0.02 µM
same,Jumping Frequency (X ± SD),mice [8],0.70 ± 2.70 and 1.30 ± 3.90
same,Jumping Incidence (%),mice [8]; sc,10.0*# %
same,Score of body weight loss (Mean ± SD),rats [9],0.00 ± 0.00
same,Score of withdrawal symptoms (Mean ± SD),rats [9]; sc,0.30 ± 0.90 and 0.20 ± 0.60
same,Body Weight Loss (%),monkeys [10],0.4 ± 0.8 %
same,Score of Withdrawal Symptoms,monkeys [10],2.6 ± 4.6
same,toxic reaction on dose escalation,monkeys [10],significant toxic reaction (vomiting)
same,"Percentage change in body weight, Overall Mean X ± SD",monkeys [11],3.2
same,withdrawal symptom score (Mean ± SD),monkeys [11],0.0
same,Sleeping time (X ± SD),Kunming mice [4]; ip,35.1 ± 26.2 ||| min and 36.3 ± 16.7 ||| min and 26.6 ± 22.5 ||| min
same,IC50,[16],~100 µM
same,animals with hypersensitive reaction (+),"Hartley guinea pigs; guinea pig, in vivo",0/8
same,animals with hypersensitive reaction (++),"Hartley guinea pigs; guinea pig, in vivo",0/8
same,animals with hypersensitive reaction (−),"Hartley guinea pigs; guinea pig, in vivo",8/8
same,embryotoxicity or teratogenic action,Shanghai mice,No embryotoxicity or teratogenic action
same,IC50,hPN3,80 µM
same,micronucleus rate,mouse's marrow cells,4.3 ‰
O=P1(N(CCCl)CCCl)NCCCO1 (stereo not shown) [cyclophosphamide],teratogenic rate,"Shanghai mice; female, Shanghai",100%
same,Number of Micronucleus cells,mouse's marrow cells,279
